Test results from the supplement of paper PMC10307832.

Legend:
Experiment in all cases: relative viability (nuclei count vs DMSO), 5 days (fraction); higher = more cells survive
CX-5461 + Linsitinib = compound: Cc1cnc(CNC(=O)c2c(=O)c3ccc(N4CCCN(C)CC4)nc3n3c2sc2ccccc23)cn1 [CX-5461] + C[C@]1(O)C[C@@H](c2nc(-c3ccc4ccc(-c5ccccc5)nc4c3)c3c(N)nccn32)C1 [Linsitinib] (partner 1 µM)
Procedure, shortened: (§1)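 A single step with final 0.05% Triton X-100, 1% formaldehyde and 1 ug/ml Hoechst fixed the cells and stained nuclei 5 days after treatment. Lung cancer cell lines in 1536-well plates had been treated by pin tool the day after seeding with one drug alone or a fixed anchor-drug dose plus five library-drug doses (not always all listed) in √10 steps, and nuclei were counted on 4× images. Relative viability is the ratio of nuclei in treated wells to nuclei in vehicle wells, taken as the median of duplicate plates.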

CX-5461 + Bortezomib = compound: Cc1cnc(CNC(=O)c2c(=O)c3ccc(N4CCCN(C)CC4)nc3n3c2sc2ccccc23)cn1 [CX-5461] + CC(C)C[C@H](NC(=O)[C@H](Cc1ccccc1)NC(=O)c1cnccn1)B(O)O [Bortezomib] (partner 0.002 µM)
Procedure, shortened: as §1

IMD-0354 + Dasatinib = compound: O=C(Nc1cc(C(F)(F)F)cc(C(F)(F)F)c1)c1cc(Cl)ccc1O [IMD-0354] + Cc1nc(Nc2ncc(C(=O)Nc3c(C)cccc3Cl)s2)cc(N2CCN(CCO)CC2)n1 [Dasatinib] (partner 0.075 µM)
Procedure, shortened: as §1

IMD-0354 + Palbociclib = compound: O=C(Nc1cc(C(F)(F)F)cc(C(F)(F)F)c1)c1cc(Cl)ccc1O [IMD-0354] + CC(=O)c1c(C)c2cnc(Nc3ccc(N4CCNCC4)cn3)nc2n(C2CCCC2)c1=O [Palbociclib] (partner 0.5 µM)
Procedure, shortened: as §1

Cell Line | relative viability (CX-5461 + Linsitinib; first compound 0.01 µM) | relative viability (CX-5461 + Linsitinib; first compound 0.03162 µM) | relative viability (CX-5461 + Linsitinib; first compound 0.1 µM) | relative viability (CX-5461 + Linsitinib; first compound 0.3162 µM) | relative viability (CX-5461 + Linsitinib; first compound 1 µM) | relative viability (CX-5461 + Bortezomib; first compound 0.01 µM) | relative viability (CX-5461 + Bortezomib; first compound 0.03162 µM) | relative viability (CX-5461 + Bortezomib; first compound 0.1 µM) | relative viability (CX-5461 + Bortezomib; first compound 0.3162 µM) | relative viability (CX-5461 + Bortezomib; first compound 1 µM) | relative viability (IMD-0354 + Dasatinib; first compound 0.04 µM) | relative viability (IMD-0354 + Dasatinib; first compound 0.1265 µM) | relative viability (IMD-0354 + Dasatinib; first compound 0.4 µM) | relative viability (IMD-0354 + Dasatinib; first compound 1.265 µM) | relative viability (IMD-0354 + Dasatinib; first compound 4 µM) | relative viability (IMD-0354 + Palbociclib; first compound 0.04 µM) | relative viability (IMD-0354 + Palbociclib; first compound 0.1265 µM) | relative viability (IMD-0354 + Palbociclib; first compound 0.4 µM) | relative viability (IMD-0354 + Palbociclib; first compound 1.265 µM) | relative viability (IMD-0354 + Palbociclib; first compound 4 µM)
NCI-H3122 | 0.99 | 1.05 | 0.994 | 1.1 | 0.973 | 0.95 | 1.06 | 1.07 | 1.02 | 0.914 | 0.843 | 0.824 | 0.321 | 0.286 | 0.0969 | 0.18 | 0.185 | 0.213 | 0.163 | 0.135
PC-3 [JPC-3] | 0.937 | 0.885 | 0.933 | 0.936 | 0.918 | 0.745 | 0.83 | 0.838 | 0.884 | 0.825 | 1.12 | 0.878 | 0.761 | 0.399 | 0.275 | 0.633 | 0.578 | 0.496 | 0.363 | 0.282
PC-14 | 0.954 | 0.992 | 1.03 | 0.987 | 0.878 | 1.02 | 0.918 | 1.03 | 0.837 | 0.944 | 0.334 | 0.186 | 0.406 | 0.0692 | 0.102 | 0.574 | 0.533 | 0.317 | 0.129 | 0.189
RERF-LC-KJ | 0.834 | 0.944 | 0.972 | 0.866 | 0.797 | 1.11 | 1.1 | 1.15 | 1.09 | 1.01 | 1.08 | 0.727 | 0.614 | 0.208 | 0.251 | 1.29 | 1.1 | 0.776 | 0.642 | 0.19
SK-LU-1 | 1.31 | 1.11 | 0.945 | 0.921 | 0.497 |  | 1.15 | 1.05 | 0.518 | 0.761 | 0.173 | 0.188 | 0.154 | 0.139 | 0.134 | 0.398 | 0.394 | 0.319 | 0.239 | 0.296
SW 1573 | 0.782 | 0.84 | 0.977 | 0.828 | 0.907 | 0.952 | 1.22 | 1.03 | 0.924 | 0.763 | 0.763 | 0.449 | 0.242 | 0.128 | 0.0881 | 0.533 | 0.315 | 0.237 | 0.147 | 0.121
